Test results reported in ChEMBL document CHEMBL2057106, “Α-amino-β-fluorocyclopropanecarboxylic acids as a new tool for drug development: synthesis of glutamic acid analogs and agonist activity towards metabotropic glutamate receptor 4” (Bioorg Med Chem, 2012).
Calls of active or inactive are those of the source. The rule behind the calls is not given here.

Columns and labels:
[1] = Agonist activity at mGlu4a receptor assessed as inhibition of forskolin-stimulated cAMP production; assay type: functional, Homo sapiens
[2] = molecular target: Metabotropic glutamate receptor 4 (Rattus norvegicus, UniProt P31423); assay: Agonist activity at rat mGlu4 receptor expressed in HEK293 cells coexpressing Gq/Gi and EAAC1 assessed as intracellular calcium production measured every 1.5 secs for 60 secs by Fluo-4-AM based fluorometry; assay type: functional, cell-based
Sequence of Metabotropic glutamate receptor 4 (P31423 whole entry): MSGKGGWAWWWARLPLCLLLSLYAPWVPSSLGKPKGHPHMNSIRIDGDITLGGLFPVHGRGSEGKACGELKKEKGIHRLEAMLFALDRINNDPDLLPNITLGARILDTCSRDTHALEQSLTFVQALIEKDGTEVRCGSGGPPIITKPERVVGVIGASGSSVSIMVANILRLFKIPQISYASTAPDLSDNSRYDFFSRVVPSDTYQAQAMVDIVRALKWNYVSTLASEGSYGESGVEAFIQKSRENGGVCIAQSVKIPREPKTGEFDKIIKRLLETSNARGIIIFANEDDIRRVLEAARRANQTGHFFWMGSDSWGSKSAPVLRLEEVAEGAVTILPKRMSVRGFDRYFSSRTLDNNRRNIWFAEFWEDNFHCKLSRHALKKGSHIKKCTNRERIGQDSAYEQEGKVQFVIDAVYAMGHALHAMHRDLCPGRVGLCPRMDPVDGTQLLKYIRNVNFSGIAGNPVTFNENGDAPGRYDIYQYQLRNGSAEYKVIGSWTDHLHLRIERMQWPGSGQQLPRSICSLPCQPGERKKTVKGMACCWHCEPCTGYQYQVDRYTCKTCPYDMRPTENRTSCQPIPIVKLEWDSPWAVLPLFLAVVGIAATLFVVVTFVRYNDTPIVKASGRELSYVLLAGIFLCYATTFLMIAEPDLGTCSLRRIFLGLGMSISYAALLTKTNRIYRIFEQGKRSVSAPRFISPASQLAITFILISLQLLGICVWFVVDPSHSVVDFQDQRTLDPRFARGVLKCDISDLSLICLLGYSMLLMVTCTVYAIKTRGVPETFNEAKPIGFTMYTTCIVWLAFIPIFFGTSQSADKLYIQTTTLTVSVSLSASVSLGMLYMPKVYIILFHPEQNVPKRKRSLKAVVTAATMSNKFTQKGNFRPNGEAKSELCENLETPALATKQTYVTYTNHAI

[3] = molecular target: Metabotropic glutamate receptor 4 (Rattus norvegicus) (UniProt P31423); assay: Agonist activity at rat mGlu4 receptor expressed in HEK293 cells coexpressing Gq/Gi and EAAC1 assessed as intracellular calcium production at 100 uM measured every 1.5 secs for 60 secs by Fluo-4-AM based fluorometry; assay type: functional, cell-based
Sequence of Metabotropic glutamate receptor 4 (Rattus norvegicus) (P31423 whole entry): as above

[4] = molecular target: Metabotropic glutamate receptor 4 (Rattus norvegicus) (UniProt P31423); assay: Ratio of (E)APCPr EC50 to compound EC50 for rat mGlu4 receptor expressed in HEK293 cells; assay type: cell-based
[5] = molecular target: Metabotropic glutamate receptor 4 (Rattus norvegicus) (UniProt P31423); assay: Ratio of glutamate EC50 to compound EC50 for rat mGlu4 receptor expressed in HEK293 cells; assay type: cell-based

| Compound | EC50 [2] [µM] | also measured |
| --- | --- | --- |
| N[C@@H](CCP(=O)(O)O)C(=O)O |  | EC50 [1]: 0.43 µM |
| N[C@@]1(C(=O)O)C[C@@]1(F)C(O)P(=O)(O)O (mixture of isomers) | 1400 |  |
| N[C@]1(C(=O)O)C[C@@]1(F)CP(=O)(O)O (racemic) | 0.34 | Activity [3]: Active; Ratio EC50 [4]: 7; Ratio EC50 [5]: 10 |
| N[C@]1(C(=O)O)C[C@H]1CP(=O)(O)O (racemic) |  | EC50 [1]: 7.9 µM |

Further lines, with some results ahead:

| EC50 [2] [µM] | Compound | also measured |
| --- | --- | --- |
| 609 | N[C@]1(C(=O)O)C[C@@]1(F)CCC(=O)O (racemic) |  |
| 465 | N[C@]1(C(=O)O)C[C@@]1(F)CC(=O)O (racemic) |  |
| 85.6 | N[C@]1(C(=O)O)C[C@@]1(F)CS(=O)(=O)O (racemic) |  |
| 2.88 | N[C@@H](CCC(=O)O)C(=O)O [GLUTAMIC ACID] |  |
